Several values for one entry are separate records, joined by “and”; a condition that tells them apart may be missing. Equal values may be shown once. Toxic doses and inconclusive results are not listed.
Test system: CD2F1 mice, L1210 leukemia ip, survival T/C
Assay: NCI In Vivo Anticancer Drug Screen. Data for tumor model L1210 Leukemia (intraperitoneal) in CD2F1 (CDF1) mice
Details: higher = longer survival
Method in brief: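 Each value reflects a quotient of treated over vehicle control outcomes in mice with a transplanted tumor.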

[1] = endpoint: mean survival time, dose: 100.0 mg/kg/injection, schedule: Q01DX001 (ip), vehicle: saline
[2] = endpoint: mean survival time, dose: 100.0 mg/kg/injection, schedule: Q04DX003 (ip), vehicle: saline
[3] = endpoint: mean survival time, dose: 200.0 mg/kg/injection, schedule: Q01DX001 (ip), vehicle: saline
[4] = endpoint: mean survival time, dose: 200.0 mg/kg/injection, schedule: Q04DX003 (ip), vehicle: saline
[5] = endpoint: mean survival time, dose: 400.0 mg/kg/injection, schedule: Q01DX001 (ip), vehicle: saline
[6] = endpoint: mean survival time, dose: 400.0 mg/kg/injection, schedule: Q04DX003 (ip), vehicle: saline
[7] = endpoint: mean survival time, dose: 100.0 mg/kg/injection, schedule: Q01DX009 (ip), vehicle: saline with Tween-80
[8] = endpoint: mean survival time, dose: 100.0 mg/kg/injection, schedule: Q04DX003 (ip), vehicle: saline with Tween-80
[9] = endpoint: mean survival time, dose: 200.0 mg/kg/injection, schedule: Q04DX003 (ip), vehicle: saline with Tween-80
[10] = endpoint: mean survival time, dose: 400.0 mg/kg/injection, schedule: Q04DX003 (ip), vehicle: saline with Tween-80

## c1cc[n+](C[n+]2ccccc2)cc1
[1]
  T/C: 101 % of control
[2]
  T/C: 96 % of control
[3]
  T/C: 101 % of control
[4]
  T/C: 97 % of control
[5]
  T/C: 101 % of control
[6]
  T/C: 100 % of control

## CCOC(=O)C1CC(C(=O)OCC)C(=O)C1=O (configuration not stated)
[7]
  T/C: 105 % of control
endpoint: mean survival time, dose: 200.0 mg/kg/injection, schedule: Q01DX009 (ip), vehicle: saline with Tween-80
  T/C: 103 % of control
endpoint: mean survival time, dose: 400.0 mg/kg/injection, schedule: Q01DX009 (ip), vehicle: saline with Tween-80
  T/C: 97 % of control

## N#Cc1cn(C2OC(CO)C(O)C2O)c2nc(NN)nc(N)c12 (configuration not stated)
endpoint: mean survival time, dose: 1.56 mg/kg/injection, schedule: Q01DX005 (ip), vehicle: water
  T/C: 105 % of control
endpoint: mean survival time, dose: 3.13 mg/kg/injection, schedule: Q01DX005 (ip), vehicle: water
  T/C: 105 % of control
endpoint: mean survival time, dose: 6.25 mg/kg/injection, schedule: Q01DX005 (ip), vehicle: water
  T/C: 107 % of control
endpoint: mean survival time, dose: 12.5 mg/kg/injection, schedule: Q01DX005 (ip), vehicle: water
  T/C: 108 % of control
endpoint: mean survival time, dose: 25.0 mg/kg/injection, schedule: Q01DX005 (ip), vehicle: water
  T/C: 110 % of control
endpoint: mean survival time, dose: 50.0 mg/kg/injection, schedule: Q01DX005 (ip), vehicle: water
  T/C: 121 % of control
endpoint: mean survival time, dose: 100.0 mg/kg/injection, schedule: Q01DX005 (ip), vehicle: water
  T/C: 96 % of control

## C[Si](C)(c1ccccc1C(=O)Nc1ccccc1)c1ccccc1C(=O)Nc1ccccc1
[8]
  T/C: 92 % of control
[9]
  T/C: 96 % of control
[10]
  T/C: 101 % of control

## COP(=O)(OC)OCC1OC(n2ccc(N)nc2=O)C(O)C1O (configuration not stated)
endpoint: median survival time, dose: 12.5 mg/kg/injection, schedule: Q01DX005 (ip), vehicle: saline
  T/C: 111 % of control
endpoint: median survival time, dose: 25.0 mg/kg/injection, schedule: Q01DX005 (ip), vehicle: saline
  T/C: 104 % of control
endpoint: median survival time, dose: 50.0 mg/kg/injection, schedule: Q01DX005 (ip), vehicle: saline
  T/C: 110 % of control
endpoint: median survival time, dose: 100.0 mg/kg/injection, schedule: Q01DX005 (ip), vehicle: saline
  T/C: 115 % of control and 108 % of control
endpoint: median survival time, dose: 200.0 mg/kg/injection, schedule: Q01DX005 (ip), vehicle: saline
  T/C: 113 % of control

## Cc1ccc(N=NN(C)C)cc1
endpoint: mean survival time, dose: 18.75 mg/kg/injection, schedule: Q01DX009 (ip), vehicle: Klucel (hydroxypropylcellulose) (HPC)
  T/C: 118 % of control
endpoint: mean survival time, dose: 75.0 mg/kg/injection, schedule: Q01DX009 (ip), vehicle: Klucel (hydroxypropylcellulose) (HPC)
  T/C: 152 % of control

## CCCc1ccc(OC)cc1
endpoint: mean survival time, dose: 50.0 mg/kg/injection, schedule: Q01DX009 (ip), vehicle: saline with Tween-80
  T/C: 103 % of control
[7]
  T/C: 97 % of control
[8]
  T/C: 98 % of control
[9]
  T/C: 94 % of control

## Cc1ccc(S(=O)(=O)N(C)C)cc1NC1=NCCO1
endpoint: mean survival time, dose: 50.0 mg/kg/injection, schedule: Q04DX003 (ip), vehicle: saline with Tween-80
  T/C: 95 % of control
[8]
  T/C: 95 % of control
[9]
  T/C: 90 % of control
[10]
  T/C: 90 % of control

## CCN(CCS)Cc1ccccc1
[8]
  T/C: 98 % of control

## Cc1ccc(OCCOc2ccc(C(=O)O)cc2)cc1
endpoint: mean survival time, dose: 7.5 mg/kg/injection, schedule: Q01DX009 (ip), vehicle: Klucel (hydroxypropylcellulose) (HPC)
  T/C: 100 % of control
endpoint: mean survival time, dose: 15.0 mg/kg/injection, schedule: Q01DX009 (ip), vehicle: Klucel (hydroxypropylcellulose) (HPC)
  T/C: 98 % of control
endpoint: mean survival time, dose: 30.0 mg/kg/injection, schedule: Q01DX009 (ip), vehicle: Klucel (hydroxypropylcellulose) (HPC)
  T/C: 96 % of control

## CC(=O)Oc1cccc(/C=C/[N+](=O)[O-])c1
endpoint: mean survival time, dose: 75.0 mg/kg/injection, schedule: Q01DX001 (ip), vehicle: steriod suspending solution
  T/C: 97 % of control
endpoint: mean survival time, dose: 150.0 mg/kg/injection, schedule: Q01DX001 (ip), vehicle: steriod suspending solution
  T/C: 97 % of control
endpoint: mean survival time, dose: 300.0 mg/kg/injection, schedule: Q01DX001 (ip), vehicle: steriod suspending solution
  T/C: 110 % of control

## CC(=O)N(CC(C)C)N=O
[1]
  T/C: 95 % of control
[2]
  T/C: 102 % of control
[3]
  T/C: 97 % of control
[4]
  T/C: 97 % of control
[5]
  T/C: 89 % of control
[6]
  T/C: 94 % of control
